The source of these data is US7282515B2, “Derivatives of azaspiro compounds for the treatment of pain” (Schwarz Pharma AG, priority 2002, dated 2007).

Each structure is given as a SMILES string.

The subject of data set [1] is NMRI mice. As to the kind of experiment: formalin test (in-vivo test for analgesic effectiveness). More on the design: key to Mean deviation of the pain reaction compared to control (%) 30–35′ after administration of formalin / Mean deviation of the pain reaction compared to control (%) 20–25′ after administration of formalin: (+): Intensified pain reaction. As to the method:
In each case, the maximum dosage selected for the concentration of azaspiro compounds was held, by a factor of about 2, below the toxic dose previously determined in the IRWIN test (Irwin, Psychopharmacologia 13 (1968) 222).
A reduction in the pain reaction is expressed in negative percentage figures.
1. In-vivo Test for Determining the Analgesic Effectiveness of the Azaspiro Compounds
The test was conducted as described by Wheeler-Aceto (Psychopharmacology 104, 1991, 35).
NMRI mice having a weight of 20-25 g were kept under controlled conditions (22±2° C., 40-70% relative humidity). 25 μl of a 5% formocarbonyl solution was injected in the hind leg and the leg-licking frequency was then clocked for 5 minutes each at defined intervals (20, 30, 40 minutes).
Next, for the formalin test, the test substances were dissolved in a physiological salt solution with 0.5% sodium carboxymethyl cellulose and were each measured in 1-3 dosages that had been applied intraperitoneally 10 minutes before administration of formalin. The comparative reference value was provided by a control excipient (10 ml/kg).
The test was performed in blind fashion on 10 mice per test series. The evaluation was based on a comparison of the treated animals with control excipients at three different times. […] Accordingly, an average 50% reduction of the pain reaction for the treated animals is obtained when in a defined period (e.g. 30-35′ after the formalin injection) the leg-licking duration (averaged over the 10 test animals) is reduced by 50% compared to the untreated animals. The statistical significance was determined using the Mann-Whitney U-test.

Data set [2] in a line: IRWIN test (toxic dose / maximally tolerable dosage). In kind it is in vivo. As for the experimental part: FIG. 1 and Table 1 show the reaction of test animals 20-45 minutes after the intraperitoneal administration of selected compounds. In each case, the maximum dosage selected for the concentration of azaspiro compounds was held, by a factor of about 2, below the toxic dose previously determined in the IRWIN test (Irwin, Psychopharmacologia 13 (1968) 222).
First, the highest possible non-toxic concentration of the respective test substances that could be used was determined by an IRWIN test (Irwin, Psychopharmacologia 13, 1968, 222).

[3] abbreviates: 8 mg/kg i.p., Test series 1 (n = 10).
[4] abbreviates: 8 mg/kg i.p., Test series 2 (n = 10).
Setting [5] is: 16 mg/kg i.p., Test series 1 (n = 10).
Where [6] appears, read: 16 mg/kg i.p., Test series 2 (n = 10).
The mark [7] stands for this setting: 32 mg/kg i.p., Test series 1 (n = 10).
Where [8] appears, read: 32 mg/kg i.p., Test series 2 (n = 10).
Where [9] appears, read: 4 mg/kg i.p., Test series 2 (n = 10).
Setting [10] is: 64 mg/kg i.p., Test series 1 (n = 10).
Where [11] appears, read: 64 mg/kg i.p., Test series 2 (n = 10).
[12] abbreviates: 32 mg/kg i.p., (n = 10), no test series named.

`O=C1CC2(CCCCC2)CN1` [GPL, 2-azaspiro[4.5]decan-3-on, reference compound]: the “Mean deviation of the pain reaction compared to control (%) 20–25′ after administration of formalin” value was “(+)” in data set [1] (setting [3]); −58% in data set [1] (setting [4]); “(+)” in data set [1] (setting [5]); −74% in data set [1] (setting [6]); “(+)” in data set [1] (setting [7]); −64% in data set [1] (setting [8]). The “Mean deviation of the pain reaction compared to control (%) 30–35′ after administration of formalin” value is listed as “(+)” in data set [1] (setting [3]); −18% in data set [1] (setting [4]); “(+)” in data set [1] (setting [5]); −40% in data set [1] (setting [6]); −10% in data set [1] (setting [7]); −15% in data set [1] (setting [8]). The “Mean deviation of the pain reaction compared to control (%) 40–45′ after administration of formalin” value in data set [1] (setting [4]) is listed as −15%; in data set [1] (setting [6]), −41%; in data set [1] (setting [8]) it was −46%. Further, the “side effects above the maximally tolerable dosages (sedation, tremor, hypothermia)” value in data set [2] is given as “significant lethality rate”.
Take `O=C1NC(=O)C2(CCCCC2)N1` [SPM 10011, 1,3-diazaspiro[4.5]decane-2,4-dion]: the “Mean deviation of the pain reaction compared to control (%) 20–25′ after administration of formalin” value in data set [1] (setting [9]) is −62%; in data set [1] (setting [5]) it was −75%; in data set [1] (setting [6]) it was −84%; in data set [1] (setting [7]), −82%; in data set [1] (setting [10]), −100%; in data set [1] (setting [11]) it was −100%. Moreover, the “Mean deviation of the pain reaction compared to control (%) 30–35′ after administration of formalin” value in data set [1] (setting [9]) is given as “(+)”; in data set [1] (setting [5]) it was −11%; in data set [1] (setting [6]), −21%; in data set [1] (setting [7]), −64%; in data set [1] (setting [10]) it was −100%; in data set [1] (setting [11]), −100%. Further, the “Mean deviation of the pain reaction compared to control (%) 40–45′ after administration of formalin” value in data set [1] (setting [5]) is listed as −55%; in data set [1] (setting [6]), −34%; in data set [1] (setting [7]) it was −64%; in data set [1] (setting [10]), −80%; in data set [1] (setting [11]), −97%.
As to `S=C1NC(=S)C2(CCCCC2)N1` [SPM 10013, 1,3-diazaspiro[4.5]decane-2,4-dithion], in data set [1] (setting [5]), the “Mean deviation of the pain reaction compared to control (%) 20–25′ after administration of formalin” value was −60%, the “Mean deviation of the pain reaction compared to control (%) 30–35′ after administration of formalin” value was −14% and the “Mean deviation of the pain reaction compared to control (%) 40–45′ after administration of formalin” value was −49%. In addition, in data set [1] (setting [7]), the “Mean deviation of the pain reaction compared to control (%) 20–25′ after administration of formalin” value was −82%, the “Mean deviation of the pain reaction compared to control (%) 30–35′ after administration of formalin” value is listed as −60% and the “Mean deviation of the pain reaction compared to control (%) 40–45′ after administration of formalin” value was −30%. Further, in data set [1] (setting [10]), the “Mean deviation of the pain reaction compared to control (%) 20–25′ after administration of formalin” value is recorded as −98%, the “Mean deviation of the pain reaction compared to control (%) 30–35′ after administration of formalin” value is −95% and the “Mean deviation of the pain reaction compared to control (%) 40–45′ after administration of formalin” value was −78%.
Consider `O=C1NCC2(CCCCC2)N1` [SPM 10019, 1,3-diazaspiro[4.5]decane-2-on], for which, in data set [1] (setting [12]), the “Mean deviation of the pain reaction compared to control (%) 20–25′ after administration of formalin” value is on record as −52% and the “Mean deviation of the pain reaction compared to control (%) 40–45′ after administration of formalin” value is recorded as −40%.
